{"source": "paper PMC7495458", "about": "“Generating Ampicillin-Level Antimicrobial Peptides with Activity-Aware Generative Adversarial Networks” (ACS Omega, 2020)", "note": "No end group written: not given here.", "data": [{"system": "E. coli TOP10", "test": "microbe, parasite or virus in culture", "format": "cell-based", "settings": "Escherichia coli; microdilution test, E. coli TOP10 late-log phase, 5 × 10^5 cfu/mL, 150 μL, 2-fold dilutions, 26 h at 37 °C, optical density 600 nm; read-out: MIC", "description": "(§1) The potency of the peptides is evaluated based on MIC against E. coli. MIC is determined as the minimum concentration of an antimicrobial at which the growth of a target microbe is suppressed. […] The high production ratio, 5/6, and the sufficiently low MIC of AMP4 validate PepGAN’s ability to generate industry-level peptides.\n(§2) The MICs of the peptides were determined using the microdilution test with some modifications. We used E. coli TOP10 (Thermo Scientific, MA, USA) in the late-log phase for this test. The colony forming unit (cfu) of E. coli was determined using optical density at 600 nm. For each peptide, we prepared 11 wells containing 150 μL of 5 × 10^5 cfu/mL of E. coli and the series of concentration of each peptide from 10 to 0.01 μg/mL (2-fold dilution for 10 times). We also prepared one well containing only 150 μL of 5 × 10^5 cfu/mL of E. coli without the peptide. Similarly, we prepared 11 wells for ampicillin in the same well-plate. We incubate the plates for 26 h at 37 °C for the growth of E. coli. To read the optical density for each well, we set the plates in a plate reader (EnSpire 2300, PerkinElmer). After shaking the plate for 10 s at 300 rpm in double-orbital motion (diameter 1 mm), we measured the optical density of each solution (600 nm).", "units": {"MIC": "µg/mL"}, "values": [{"molecule": "CC1(C)S[C@@H]2[C@H](NC(=O)[C@H](N)c3ccccc3)C(=O)N2[C@H]1C(=O)O", "note": "[ampicillin]", "MIC": 6.25}]}, {"system": "E. coli TOP10", "test": "microbe, parasite or virus in culture", "format": "cell-based", "settings": "TOP10, 26 h", "description": "as §1, §2", "units": {"MIC": "µg/mL"}, "values": [{"molecule": "EIEYGNPGVGTDR-NH2 [AMP9NC]", "MIC": ">100"}, {"molecule": "FLGPIIKTVRAVLCAIKKL-NH2 [AMP6]", "MIC": 25}, {"molecule": "FLPAFKNVISKILKALKKKV-NH2 [AMP5]", "MIC": 12.5}, {"molecule": "GLKKLFSKIKIIGSALKNLA-NH2 [AMP4]", "MIC": 3.1}, {"molecule": "GLRSSVKTLLRGLLGIIKKF-NH2 [AMP3]", "MIC": ">100"}, {"molecule": "IKALLALPKLAKKIAKKFLK-NH2 [AMP2]", "MIC": 50}, {"molecule": "ILPLLKKFGKKFGKKVWKAL-NH2 [AMP1]", "MIC": 25}, {"molecule": "KRFLPSCVRSIQNLDDALPTPEEF-NH2 [AMP8NC]", "MIC": ">100"}, {"molecule": "LFTMADPIQSIEKEI-NH2 [AMP7NC]", "MIC": ">100"}, {"molecule": "TLPEWDDRRVVNS-NH2 [AMP10NC]", "MIC": ">100"}]}]}
